Source: PubChem BioAssay (NCI)
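48-hour exposure; five concentrations; linearly interpolated endpoints. Here, GI50 denotes the concentration required for 50% inhibition of growth. TGI marks complete inhibition of growth.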

Experiments:
Assay in all cases: NCI anticancer screen, dose series, 48 h
SK-OV-3 ovarian = tested on: SK-OV-3 ovarian
EKVX NSCLC = tested on: EKVX NSCLC
UACC-62 melanoma = tested on: UACC-62 melanoma
M14 melanoma = tested on: M14 melanoma
DU-145 prostate = tested on: DU-145 prostate
SF-539 CNS = tested on: SF-539 CNS
HCT-116 colon = tested on: HCT-116 colon
MDA-MB-231 breast = tested on: MDA-MB-231 breast
HS 578T breast = tested on: HS 578T breast
HT29 colon = tested on: HT29 colon
K-562 leukemia = tested on: K-562 leukemia
MCF7 breast = tested on: MCF7 breast
SN12C renal = tested on: SN12C renal
TK-10 renal = tested on: TK-10 renal
OVCAR-3 ovarian = tested on: OVCAR-3 ovarian
U251 CNS = tested on: U251 CNS
HCT-15 colon = tested on: HCT-15 colon
T-47D breast = tested on: T-47D breast
SK-MEL-2 melanoma = tested on: SK-MEL-2 melanoma
NCI-H460 lung = tested on: NCI-H460 lung
ACHN renal = tested on: ACHN renal
SK-MEL-28 melanoma = tested on: SK-MEL-28 melanoma
SNB-19 CNS = tested on: SNB-19 CNS
HOP-62 NSCLC = tested on: HOP-62 NSCLC
SF-295 CNS = tested on: SF-295 CNS
SW-620 colon = tested on: SW-620 colon
HL-60(TB) leukemia = tested on: HL-60(TB) leukemia
PC-3 prostate = tested on: PC-3 prostate
MALME-3M melanoma = tested on: MALME-3M melanoma

For `CCN(CC)CCn1c2ccc(O)cc2c2sc3cc(OC)ccc3c(=O)c21`, the GI50 (SK-OV-3 ovarian) was 13.4 µM, the TGI (SK-OV-3 ovarian) was 27.2 µM and the GI50 (EKVX NSCLC) was 1.67 µM. The TGI (EKVX NSCLC) was 3.5 µM, the GI50 (UACC-62 melanoma) was 1.89 µM and the TGI (UACC-62 melanoma) was 4.26 µM. The GI50 (M14 melanoma) was 1.64 µM, the TGI (M14 melanoma) was 3.31 µM and the GI50 (DU-145 prostate) was 1.71 µM. The TGI (DU-145 prostate) was 3.51 µM, the GI50 (SF-539 CNS) was 1.76 µM and the TGI (SF-539 CNS) was 3.2 µM. The GI50 (HCT-116 colon) was 1.07 µM, the TGI (HCT-116 colon) was 2.38 µM and the GI50 (MDA-MB-231 breast) was 1.61 µM. For the same molecule, the TGI (MDA-MB-231 breast) was 3.71 µM, the GI50 (HS 578T breast) was 1.95 µM and the TGI (HS 578T breast) was 4.59 µM. For the same molecule, the GI50 (HT29 colon) was 1.75 µM, the TGI (HT29 colon) was 4.29 µM and the GI50 (K-562 leukemia) was 1.24 µM. For the same molecule, the TGI (K-562 leukemia) was 2.81 µM, the GI50 (MCF7 breast) was 1.18 µM and the TGI (MCF7 breast) was 2.79 µM. It also gave a GI50 (SN12C renal) of 5.83 µM, a TGI (SN12C renal) of 21.2 µM and a GI50 (TK-10 renal) of 9.04 µM. For the same molecule, the TGI (TK-10 renal) was 24.7 µM, the GI50 (OVCAR-3 ovarian) was 2.19 µM and the TGI (OVCAR-3 ovarian) was 4.88 µM. The GI50 (U251 CNS) was 1.58 µM, the TGI (U251 CNS) was 3.34 µM and the GI50 (HCT-15 colon) was 1.2 µM. It also gave a TGI (HCT-15 colon) of 3.28 µM, a GI50 (T-47D breast) of 14.2 µM and a TGI (T-47D breast) of 37.9 µM. It also gave a GI50 (SK-MEL-2 melanoma) of 9.15 µM, a TGI (SK-MEL-2 melanoma) of 25.1 µM and a GI50 (NCI-H460 lung) of 1.22 µM. The TGI (NCI-H460 lung) was 2.66 µM, the GI50 (ACHN renal) was 1.13 µM and the TGI (ACHN renal) was 2.44 µM. It also gave a GI50 (SK-MEL-28 melanoma) of 1.8 µM, a TGI (SK-MEL-28 melanoma) of 3.29 µM and a GI50 (SNB-19 CNS) of 1.51 µM. For the same molecule, the TGI (SNB-19 CNS) was 3.41 µM, the GI50 (HOP-62 NSCLC) was 6.03 µM and the TGI (HOP-62 NSCLC) was 23.7 µM. For the same molecule, the GI50 (SF-295 CNS) was 5.35 µM, the TGI (SF-295 CNS) was 18.8 µM and the GI50 (SW-620 colon) was 0.675 µM. It also gave a TGI (SW-620 colon) of 2.11 µM, a GI50 (HL-60(TB) leukemia) of 1.72 µM and a TGI (HL-60(TB) leukemia) of 3.55 µM. For the same molecule, the GI50 (PC-3 prostate) was 1.82 µM, the TGI (PC-3 prostate) was 5.09 µM and the GI50 (MALME-3M melanoma) was 1.87 µM.
